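Tested at 5 concentrations; 48 h exposure; 96-well plates; endpoints linearly interpolated, else capped at highest concentration. The concentration for 50% growth inhibition is given as GI50.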 Activity calls are given as the source filed them. Cut-off read from the data, not from the text of the source: active = GI50 up to about 1.1 µM and inactive = higher.
Legend:
Assay in all cases: growth of human tumour cells (NCI), 48 h
786-0 = tested on: 786-0
A498 = tested on: A498
A549 = tested on: A549
ACHN = tested on: ACHN
BT-549 = tested on: BT-549
CAKI-1 = tested on: CAKI-1
CCRF-CEM = tested on: CCRF-CEM
COLO 205 = tested on: COLO 205
DU-145 = tested on: DU-145
EKVX = tested on: EKVX
HCC 2998 = tested on: HCC 2998
HCT-116 = tested on: HCT-116
HCT-15 = tested on: HCT-15
HL-60 = tested on: HL-60
HOP-62 = tested on: HOP-62
HOP-92 = tested on: HOP-92
HT-29 = tested on: HT-29
Hs-578T = tested on: Hs-578T
IGROV-1 = tested on: IGROV-1
K562 = tested on: K562
KM12 = tested on: KM12
LOX IMVI = tested on: LOX IMVI
MCF7 = tested on: MCF7
MDA-MB-231 = tested on: MDA-MB-231
MDA-MB-435 = tested on: MDA-MB-435
MDA-N = tested on: MDA-N
MOLT-4 = tested on: MOLT-4
Malme-3M = tested on: Malme-3M
NCI-H226 = tested on: NCI-H226
NCI-H23 = tested on: NCI-H23
NCI-H460 = tested on: NCI-H460
NCI-H522 = tested on: NCI-H522
NCI/ADR-RES = tested on: NCI/ADR-RES
OVCAR-3 = tested on: OVCAR-3
OVCAR-4 = tested on: OVCAR-4
OVCAR-5 = tested on: OVCAR-5
OVCAR-8 = tested on: OVCAR-8
PC-3 = tested on: PC-3
RPMI-8226 = tested on: RPMI-8226
RXF 393 = tested on: RXF 393
SF-268 = tested on: SF-268
SF-295 = tested on: SF-295
SF-539 = tested on: SF-539
SK-MEL-28 = tested on: SK-MEL-28
SK-MEL-2 = tested on: SK-MEL-2
SK-MEL-5 = tested on: SK-MEL-5
SK-OV-3 = tested on: SK-OV-3
SN12C = tested on: SN12C
SNB-75 = tested on: SNB-75
SR = tested on: SR
SW-620 = tested on: SW-620
T47D = tested on: T47D
TK-10 = tested on: TK-10
UACC-257 = tested on: UACC-257
UACC-62 = tested on: UACC-62
UO-31 = tested on: UO-31
M14 = tested on: M14
SNB-19 = tested on: SNB-19
U-251 = tested on: U-251

## c1cc2nsnc2c2c[nH]cc12
786-0
  GI50: > 100 µM (inactive)
A498
  GI50: 24.7 µM (inactive)
A549
  GI50: 64.9 µM (inactive)
ACHN
  GI50: 81.5 µM (inactive)
BT-549
  GI50: 49.7 µM (inactive)
CAKI-1
  GI50: > 100 µM (inactive)
CCRF-CEM
  GI50: > 100 µM (inactive)
COLO 205
  GI50: > 100 µM (inactive)
DU-145
  GI50: > 100 µM (inactive)
EKVX
  GI50: 26.9 µM (inactive)
HCC 2998
  GI50: > 100 µM (inactive)
HCT-116
  GI50: > 100 µM (inactive)
HCT-15
  GI50: 99.5 µM
HL-60
  GI50: 67.1 µM (inactive)
HOP-62
  GI50: > 100 µM (inactive)
HOP-92
  GI50: 28.1 µM (inactive)
HT-29
  GI50: > 100 µM (inactive)
Hs-578T
  GI50: 48.1 µM (inactive)
IGROV-1
  GI50: 43.7 µM (inactive)
K562
  GI50: 49.1 µM (inactive)
KM12
  GI50: > 100 µM (inactive)
LOX IMVI
  GI50: > 100 µM (inactive)
MCF7
  GI50: 34.7 µM (inactive)
MDA-MB-231
  GI50: 56.6 µM (inactive)
MDA-MB-435
  GI50: 40.6 µM (inactive)
MDA-N
  GI50: 71.4 µM (inactive)
MOLT-4
  GI50: 85.3 µM (inactive)
Malme-3M
  GI50: > 100 µM (inactive)
NCI-H226
  GI50: 99.5 µM (inactive)
NCI-H23
  GI50: > 100 µM (inactive)
NCI-H460
  GI50: 86.3 µM (inactive)
NCI-H522
  GI50: 56.5 µM (inactive)
NCI/ADR-RES
  GI50: 61.5 µM (inactive)
OVCAR-3
  GI50: > 100 µM (inactive)
OVCAR-4
  GI50: > 100 µM (inactive)
OVCAR-5
  GI50: 47.4 µM (inactive)
OVCAR-8
  GI50: 34.2 µM (inactive)
PC-3
  GI50: 45.1 µM (inactive)
RPMI-8226
  GI50: > 100 µM (inactive)
RXF 393
  GI50: 52.7 µM (inactive)
SF-268
  GI50: > 100 µM (inactive)
SF-295
  GI50: > 100 µM (inactive)
SF-539
  GI50: > 100 µM (inactive)
SK-MEL-28
  GI50: > 100 µM (inactive)
SK-MEL-2
  GI50: > 100 µM (inactive)
SK-MEL-5
  GI50: 61.4 µM (inactive)
SK-OV-3
  GI50: > 100 µM (inactive)
SN12C
  GI50: > 100 µM (inactive)
SNB-75
  GI50: 50.6 µM (inactive)
SR
  GI50: 96.6 µM (inactive)
SW-620
  GI50: > 100 µM (inactive)
T47D
  GI50: 21 µM (inactive)
TK-10
  GI50: > 100 µM (inactive)
UACC-257
  GI50: > 100 µM (inactive)
UACC-62
  GI50: 42.9 µM (inactive)
UO-31
  GI50: 25.5 µM (inactive)

## COc1ccc(C(=C2C(=O)OC(=O)C2=C(C)C)c2ccc(OC)cc2)cc1
786-0
  GI50: > 100 µM (inactive)
A498
  GI50: > 100 µM (inactive)
A549
  GI50: 67.6 µM (inactive)
ACHN
  GI50: > 100 µM (inactive)
BT-549
  GI50: 70.5 µM (inactive)
CAKI-1
  GI50: > 100 µM (inactive)
COLO 205
  GI50: > 100 µM (inactive)
DU-145
  GI50: > 100 µM (inactive)
EKVX
  GI50: 27 µM (inactive)
HCC 2998
  GI50: > 100 µM (inactive)
HCT-116
  GI50: > 100 µM (inactive)
HCT-15
  GI50: 51.9 µM
HL-60
  GI50: 31.2 µM (inactive)
HOP-62
  GI50: 45.8 µM (inactive)
HOP-92
  GI50: > 100 µM (inactive)
HT-29
  GI50: 48 µM (inactive)
Hs-578T
  GI50: 95.5 µM (inactive)
IGROV-1
  GI50: 54 µM (inactive)
KM12
  GI50: 29.2 µM (inactive)
LOX IMVI
  GI50: 34.4 µM (inactive)
M14
  GI50: 85.1 µM (inactive)
MCF7
  GI50: > 100 µM (inactive)
MDA-MB-231
  GI50: > 100 µM (inactive)
MDA-MB-435
  GI50: > 100 µM (inactive)
MDA-N
  GI50: > 100 µM (inactive)
MOLT-4
  GI50: 57.4 µM (inactive)
Malme-3M
  GI50: 92 µM (inactive)
NCI-H226
  GI50: > 100 µM (inactive)
NCI-H23
  GI50: > 100 µM (inactive)
NCI-H460
  GI50: > 100 µM (inactive)
NCI-H522
  GI50: 23.2 µM (inactive)
NCI/ADR-RES
  GI50: 39.5 µM (inactive)
OVCAR-3
  GI50: 22 µM (inactive)
OVCAR-4
  GI50: 29.6 µM (inactive)
OVCAR-5
  GI50: 79.1 µM (inactive)
OVCAR-8
  GI50: 47.4 µM (inactive)
PC-3
  GI50: 60.4 µM (inactive)
RPMI-8226
  GI50: 28.8 µM (inactive)
RXF 393
  GI50: > 100 µM (inactive)
SF-268
  GI50: > 100 µM (inactive)
SF-295
  GI50: 73.5 µM (inactive)
SF-539
  GI50: > 100 µM (inactive)
SK-MEL-28
  GI50: > 100 µM (inactive)
SK-MEL-2
  GI50: 53.8 µM (inactive)
SK-MEL-5
  GI50: > 100 µM (inactive)
SK-OV-3
  GI50: > 100 µM (inactive)
SN12C
  GI50: > 100 µM (inactive)
SNB-19
  GI50: 57.4 µM (inactive)
SNB-75
  GI50: > 100 µM (inactive)
SR
  GI50: 38.5 µM (inactive)
SW-620
  GI50: > 100 µM (inactive)
T47D
  GI50: > 100 µM (inactive)
TK-10
  GI50: > 100 µM (inactive)
U-251
  GI50: 33.4 µM (inactive)
UACC-257
  GI50: > 100 µM (inactive)
UACC-62
  GI50: > 100 µM (inactive)
UO-31
  GI50: > 100 µM (inactive)

## COC1=C(N2CC2)C(=O)c2nc3n(c2C1=O)CCC3
786-0
  GI50: 0.321 µM (active)
A498
  GI50: 1.41 µM (inactive)
A549
  GI50: 1.98 µM (inactive)
ACHN
  GI50: 0.275 µM (active)
BT-549
  GI50: 1.15 µM (inactive)
CCRF-CEM
  GI50: 0.265 µM (active)
COLO 205
  GI50: 0.656 µM (active)
DU-145
  GI50: 0.372 µM (active)
HCC 2998
  GI50: 0.679 µM (active)
HCT-116
  GI50: 0.434 µM (active)
HCT-15
  GI50: 0.368 µM
HL-60
  GI50: 0.21 µM (active)
HOP-62
  GI50: 0.953 µM (active)
HOP-92
  GI50: 3.33 µM (inactive)
HT-29
  GI50: 0.352 µM (active)
Hs-578T
  GI50: 5.09 µM (inactive)
IGROV-1
  GI50: 1.43 µM (inactive)
K562
  GI50: 0.271 µM (active)
KM12
  GI50: 1.37 µM (inactive)
LOX IMVI
  GI50: 0.406 µM (active)
M14
  GI50: 0.22 µM (active)
MCF7
  GI50: 0.532 µM (active)
MDA-MB-231
  GI50: 2.72 µM (inactive)
MDA-MB-435
  GI50: 1.45 µM (inactive)
MDA-N
  GI50: 1.38 µM (inactive)
MOLT-4
  GI50: 0.306 µM (active)
Malme-3M
  GI50: 0.305 µM (active)
NCI-H226
  GI50: 1.87 µM (inactive)
NCI-H23
  GI50: 0.497 µM (active)
NCI-H460
  GI50: 0.45 µM (active)
NCI-H522
  GI50: 0.147 µM (active)
NCI/ADR-RES
  GI50: 0.453 µM (active)
OVCAR-3
  GI50: 0.393 µM (active)
OVCAR-4
  GI50: 0.22 µM (active)
OVCAR-5
  GI50: 1.26 µM (inactive)
OVCAR-8
  GI50: 1.35 µM (inactive)
PC-3
  GI50: 0.695 µM (active)
RPMI-8226
  GI50: 0.0489 µM (active)
RXF 393
  GI50: 0.0743 µM (active)
SF-268
  GI50: 1.6 µM (inactive)
SF-295
  GI50: 0.815 µM (active)
SF-539
  GI50: 2.04 µM (inactive)
SK-MEL-28
  GI50: 4.01 µM (inactive)
SK-MEL-5
  GI50: 1.29 µM (inactive)
SK-OV-3
  GI50: 1.18 µM (inactive)
SN12C
  GI50: 1.3 µM (inactive)
SNB-19
  GI50: 1.39 µM (inactive)
SNB-75
  GI50: 1.71 µM (inactive)
SR
  GI50: 0.357 µM (active)
SW-620
  GI50: 0.242 µM (active)
T47D
  GI50: 1.79 µM (inactive)
TK-10
  GI50: 3.23 µM (inactive)
U-251
  GI50: 1.4 µM (inactive)
UACC-62
  GI50: 1.54 µM (inactive)
UO-31
  GI50: 0.224 µM (active)
